Measured values taken from PubChem BioAssay AID1259411 (Chemical Carcinogenesis Research Information System (CCRIS), 2018).
The source made the active and inactive calls. No rule for the calls is given here.

Tested on: rodent carcinogenicity bioassays, tumor incidence
Assay: CCRIS carcinogenicity studies
Source text: The CCRIS database contains chemical records with carcinogenicity, mutagenicity, tumor promotion, and tumor inhibition test results. It was developed by the National Cancer Institute (NCI). Data are derived from studies cited in primary journals, current awareness tools, NCI reports, and other sources. Test results have been reviewed by experts in carcinogenesis and mutagenesis.
CCRIS provides historical information from the years 1985 - 2011. It is no longer updated.
This is an archive assay for CCRIS carcinogenicity studies.

SMILES: Cc1c(C(=O)O)c(O)cc2c1C(=O)c1c(O)c([C@@H]3O[C@@H](CO)[C@H](O)[C@@H](O)[C@H]3O)c(O)c(O)c1C2=O
- carcinogen call (Species: RAT, Strain/Sex: WISTAR/FEMALE, Route: ORAL, Dose: 0, 50, 150, 500 MG/KG/D IN BASAL DIET TO PUPS OF PARENTS GIVEN THE SAME DIETARY DOSE LEVELS FOR 60 D PRIOR TO MATING AND, Dose: 0, 50, 150, 500 MG/KG/D IN BASAL DIET TO PUPS OF PARENTS GIVEN THE SAME DIETARY DOSE LEVELS FOR 60 D PRIOR TO MATING AND): inactive; negative
- carcinogen call (Species: RAT, Strain/Sex: WISTAR/MALE, Route: ORAL, Dose: 0, 50, 150, 500 MG/KG/D IN BASAL DIET TO PUPS OF PARENTS GIVEN THE SAME DIETARY DOSE LEVELS FOR 60 D PRIOR TO MATING AND, Dose: 0, 50, 150, 500 MG/KG/D IN BASAL DIET TO PUPS OF PARENTS GIVEN THE SAME DIETARY DOSE LEVELS FOR 60 D PRIOR TO MATING AND): inactive; negative

SMILES: CCN(CC)C(=O)Nc1ccc(OCC(O)CNC(C)(C)C)c(C(C)=O)c1 (configuration not stated)
- carcinogen call (Species: MOUSE, Strain/Sex: CD-1/FEMALE, Route: ORAL, Dose: 0, 100, 300, 900 MG/KG IN DIET FOR DURATION OF STUDY (STUDY DURATION: 2 YR), Dose: 0, 100, 300, 900 MG/KG IN DIET FOR DURATION OF STUDY (STUDY DURATION: 2 YR)): inactive; negative
- carcinogen call (Species: MOUSE, Strain/Sex: CD-1/MALE, Route: ORAL, Dose: 0, 100, 300, 900 MG/KG IN DIET FOR DURATION OF STUDY (STUDY DURATION: 2 YR), Dose: 0, 100, 300, 900 MG/KG IN DIET FOR DURATION OF STUDY (STUDY DURATION: 2 YR)): inactive; negative
- carcinogen call (Species: RAT, Strain/Sex: SPRAGUE-DAWLEY/FEMALE, Route: ORAL, Dose: 0, 100, 300, 900 MG/KG IN DIET FOR 316 D THEN 0, 30, 100, 300 MG/KG FOR DURATION OF STUDY (STUDY DURATION: 2 YR), Dose: 0, 100, 300, 900 MG/KG IN DIET FOR 316 D THEN 0, 30, 100, 300 MG/KG FOR DURATION OF STUDY (STUDY DURATION: 2 YR)): inactive; negative
- carcinogen call (Species: RAT, Strain/Sex: SPRAGUE-DAWLEY/MALE, Route: ORAL, Dose: 0, 100, 300, 900 MG/KG IN DIET FOR 316 D THEN 0, 30, 100, 300 MG/KG FOR DURATION OF STUDY (STUDY DURATION: 2 YR), Dose: 0, 100, 300, 900 MG/KG IN DIET FOR 316 D THEN 0, 30, 100, 300 MG/KG FOR DURATION OF STUDY (STUDY DURATION: 2 YR)): inactive; negative

SMILES: Nc1ccc(/C=C/c2ccccc2)cc1
- carcinogen call (Species: RAT, Strain/Sex: HOLTZMAN/FEMALE, Route: ORAL, Dose: 0, 0.0038% IN DIET FOR 13 WK BEGINNING AT WEANING (STUDY DURATION: 40 WK), Tumor Site: Type of Lesion: EAR DUCT GLAND: CARCINOMA): active; positive
- carcinogen call (Species: RAT, Strain/Sex: HOLTZMAN/FEMALE, Route: SUBCUTANEOUS, Dose: 0. 5.3 UMOL SUSPENDED IN 0.2 ML TRICAPRYLIN 1/WK FOR 5 WK (STUDY DURATION: 10 MO), Tumor Site: Type of Lesion: MAMMARY GLAND: CARCINOMA): active; positive

SMILES: Cc1nc(N)cc2[nH]c3ccccc3c12
- carcinogen call (Species: MOUSE, Strain/Sex: CDF1/FEMALE, Route: ORAL, Dose: 0, 200 PPM IN DIET FOR 621 D, Tumor Site: Type of Lesion: LIVER: HEPATOCELLULAR CARCINOMA): active; positive
- carcinogen call (Species: MOUSE, Strain/Sex: DDY/FEMALE, Route: BLADDER IMPLANT, Dose: 0, 5% IN PARAFFIN PELLET (STUDY DURATION: 40 WK), Tumor Site: Type of Lesion: URINARY BLADDER: TRANSITIONAL CELL CARCINOMA): active; positive
- carcinogen call (Species: RAT, Strain/Sex: F344/FEMALE, Route: ORAL, Dose: 0, 30, 100 PPM IN DIET FOR 112 WK (STUDY DURATION: 112 WK), Dose: 0, 30, 100 PPM IN DIET FOR 112 WK (STUDY DURATION: 112 WK), Tumor Site: Type of Lesion: MAMMARY GLAND: FIBROADENOMA OR FIBROMA, HEMATOPOIETIC SYSTEM: MALIGNANT LYMPHOMA, CLITORAL GLAND: ADENOMA, Tumor Site: Type of Lesion: MAMMARY GLAND: FIBROADENOMA OR FIBROMA, HEMATOPOIETIC SYSTEM: MALIGNANT LYMPHOMA, CLITORAL GLAND: ADENOMA): active; positive
- carcinogen call (Species: RAT, Strain/Sex: F344/MALE, Route: ORAL, Dose: 0, 30, 100 PPM IN DIET FOR 112 WK (STUDY DURATION: 112 WK), Dose: 0, 30, 100 PPM IN DIET FOR 112 WK (STUDY DURATION: 112 WK), Tumor Site: Type of Lesion: LIVER: HEPATOCELLULAR ADENOMA, URINARY BLADDER: TRANSITIONAL CELL PAPILLOMA, MAMMARY GLAND: FIBROADENOMA OR FIBROMA, Tumor Site: Type of Lesion: LIVER: HEPATOCELLULAR ADENOMA, URINARY BLADDER: TRANSITIONAL CELL PAPILLOMA, MAMMARY GLAND: FIBROADENOMA OR FIBROMA): active; positive

SMILES: O=Cc1ccco1
- carcinogen call (Species: MOUSE, Strain/Sex: B6C3F1/FEMALE, Route: GAVAGE, Dose: 0, 50, 100, 175 MG/KG IN CORN OIL 5 D/WK FOR 103 WK (STUDY DURATION: 105 WK), Dose: 0, 50, 100, 175 MG/KG IN CORN OIL 5 D/WK FOR 103 WK (STUDY DURATION: 105 WK), Tumor Site: Type of Lesion: LIVER: HEPATOCELLULAR ADENOMA, HEPATOCELLULAR ADENOMA OR CARCINOMA, FORESTOMACH: SQUAMOUS PAPILLOMA): active; positive
- carcinogen call (Species: MOUSE, Strain/Sex: B6C3F1/MALE, Route: GAVAGE, Dose: 0, 50, 100, 175 MG/KG IN CORN OIL 5 D/WK FOR 103 WK (STUDY DURATION: 105 WK), Dose: 0, 50, 100, 175 MG/KG IN CORN OIL 5 D/WK FOR 103 WK (STUDY DURATION: 105 WK), Tumor Site: Type of Lesion: LIVER: HEPATOCELLULAR ADENOMA, HEPATOCELLULAR CARCINOMA): active; positive
- carcinogen call (Species: MOUSE, Strain/Sex: CD-1/FEMALE, Route: DERMAL, Dose: 0, 50 UMOL/0.1 ML DMSO 2/WK FOR 5 WK FOLLOWED 1 WK LATER BY 0.1 ML ACETONE 2/WK FOR 47 WK (STUDY DURATION: 52 WK)): inactive; negative
- carcinogen call (Species: RAT, Strain/Sex: F344/FEMALE, Route: GAVAGE, Dose: 0, 30, 60 MG/KG IN CORN OIL 5 D/WK FOR 103 WK (STUDY DURATION: 105 WK), Dose: 0, 30, 60 MG/KG IN CORN OIL 5 D/WK FOR 103 WK (STUDY DURATION: 105 WK)): inactive; negative
- carcinogen call (Species: RAT, Strain/Sex: F344/MALE, Route: GAVAGE, Dose: 0, 30, 60 MG/KG IN CORN OIL 5 D/WK FOR 103 WK (STUDY DURATION: 105 WK), Dose: 0, 30, 60 MG/KG IN CORN OIL 5 D/WK FOR 103 WK (STUDY DURATION: 105 WK), Tumor Site: Type of Lesion: BILE DUCT: CHOLANGIOCARCINOMA): active; positive

SMILES: C#C[C@]1(O)CC[C@H]2[C@@H]3CCc4cc(O)ccc4[C@H]3[C@@H](OC)C[C@@]21C
- carcinogen call (Species: HAMSTER, Strain/Sex: SYRIAN/MALE, Route: SUBCUTANEOUS IMPLANT, Dose: 0, 20 MG IN PELLETS IMPLANTED EVERY 2.5 MO FOR 9 MO (STUDY DURATION: 9 MO), Tumor Site: Type of Lesion: KIDNEY: TUMOR): active; positive

SMILES: CC(C)(C)O
- carcinogen call (Species: MOUSE, Strain/Sex: B6C3F1/FEMALE, Route: ORAL, Dose: 0, 5, 10, 20 MG/ML IN DRINKING WATER FOR 103 WK (STUDY DURATION: 103 WK), Dose: 0, 5, 10, 20 MG/ML IN DRINKING WATER FOR 103 WK (STUDY DURATION: 103 WK), Tumor Site: Type of Lesion: THYROID GLAND: FOLLICULAR CELL ADENOMA): active; positive
- carcinogen call (Species: MOUSE, Strain/Sex: B6C3F1/MALE, Route: ORAL, Dose: 0, 5, 10, 20 MG/ML IN DRINKING WATER FOR 103 WK (STUDY DURATION: 103 WK), Dose: 0, 5, 10, 20 MG/ML IN DRINKING WATER FOR 103 WK (STUDY DURATION: 103 WK), Tumor Site: Type of Lesion: THYROID GLAND: FOLLICULAR CELL ADENOMA OR CARCINOMA): equivocal
- carcinogen call (Species: RAT, Strain/Sex: F344/FEMALE, Route: ORAL, Dose: 0, 2.5, 5, 10 MG/ML IN DRINKING WATER FOR 103 WK (STUDY DURATION: 103 WK), Dose: 0, 2.5, 5, 10 MG/ML IN DRINKING WATER FOR 103 WK (STUDY DURATION: 103 WK)): inactive; negative
- carcinogen call (Species: RAT, Strain/Sex: F344/MALE, Route: ORAL, Dose: 0, 1.25, 2.5, 5 MG/ML IN DRINKING WATER FOR 103 WK (STUDY DURATION: 103 WK), Dose: 0, 1.25, 2.5, 5 MG/ML IN DRINKING WATER FOR 103 WK (STUDY DURATION: 103 WK), Tumor Site: Type of Lesion: KIDNEY (RENAL TUBULE): ADENOMA OR CARCINOMA): active; positive
